Consider 21 compounds from US11840497B2, “4-(p-quinonyl)-2-hydroxybutanamide derivatives for treatment of mitochondrial diseases” (PTC Therapeutics, Inc., priority 2007, dated 2023).

The structures appear in SMILES notation. pEC50: −log10 of the molar value.

Type in all cases: cell-based
Assay [1] has as its system Human dermal fibroblasts from Friedreich's Ataxia patients. Description: Rescue of BSO-stressed FRDA fibroblasts (Example A). The note with it: FRDA fibroblasts GM04078, 1 mM BSO, read-out: protection against FRDA, EC50. As to the method:
Test samples, 4 reference compounds (idebenone, decylubiquinone, Trolox and α-tocopherol acetate), and solvent controls were tested for their ability to rescue FRDA fibroblasts stressed by addition of L-buthionine (S,R)-sulfoximine (BSO), as described in Jauslin et al., Hum. Mol. Genet. […] Mol. Genet. […] This specific BSO-mediated cell death can be prevented by administration of antioxidants or molecules involved in the antioxidant pathway, such as α-tocopherol, selenium, or small molecule glutathione peroxidase mimetics. However, antioxidants differ in their potency, i.e. the concentration at which they are able to rescue BSO-stressed FRDA fibroblasts.
Fetal Calf Serum was obtained from PAA Laboratories. Basic fibroblast growth factor and epidermal growth factor were purchased from PeproTech. Penicillin-streptomycin-glutamine mix, L-buthionine (S,R)-sulfoximine, (+)-α-tocopherol acetate, decylubiquinone, and insulin from bovine pancreas were purchased from Sigma. Trolox (6-Hydroxy-2,5,7,8-tetramethylchroman-2-carboxylic acid) was obtained from Fluka. Idebenone was obtained from Chemo Iberica. Calcein AM was purchased from Molecular Probes. Cell culture medium was made by combining 125 ml M199 EBS, 50 ml Fetal Calf Serum, 100 U/ml penicillin, 100 μg/ml streptomycin, 2 mM glutamine, 10 μg/ml insulin, 10 ng/ml EGF, and 10 ng/ml bFGF; MEM EBS was added to make the volume up to 500 ml. […] During the course of the experiments, this solution was stored at +4° C. The cells were obtained from the Coriell Cell Repositories (Camden, NJ; repository number GM04078) and grown in 10 cm tissue culture plates. Every third day, they were split at a 1:3 ratio.
The test samples were supplied in 1.5 ml glass vials. […] Once dissolved, they were stored at −20° C. Reference antioxidants (idebenone, decylubiquinone, α-tocopherol acetate and trolox) were dissolved in DMSO.
Test samples were screened according to the following protocol: A culture with FRDA fibroblasts was started from a 1 ml vial with approximately 500,000 cells stored in liquid nitrogen. […] Once confluent, fibroblasts were harvested. […] The remaining cells were distributed in 10 cm cell culture plates (500,000 cells/plate) for propagation. The plates were incubated overnight at 37° C. in a atmosphere with 95% humidity and 5% CO2 to allow attachment of the cells to the culture plate.
MTP medium (243 μl) was added to a well of the microtiter plate. […] Serial dilutions from the master solution were made. The period between the single dilution steps was kept as short as possible (generally less than 1 second).
Plates were kept overnight in the cell culture incubator. The next day, 10 μl of a 10 mM BSO solution were added to the wells, resulting in a 1 mM final BSO concentration. Forty-eight hours later, three plates were examined under a phase-contrast microscope to verify that the cells in the 0% control (wells E1-H1) were clearly dead. The medium from all plates was discarded, and the remaining liquid was removed by gently tapping the plate inversed onto a paper towel.
The plates were incubated for 50-70 minutes at room temperature. After that time the PBS was discarded, the plate gently tapped on a paper towel and fluorescence (excitation/emission wavelengths of 485 nm and 525 nm, respectively) was read on a Gemini fluorescence reader. Data was imported into Microsoft Excel (EXCEL is a registered trademark of Microsoft Corporation for a spreadsheet program) and used to calculate the EC50 concentration for each compound.
The compounds were tested three times, i.e., the experiment was performed three times, the passage number of the cells increasing by one with every repetition.
The viability of non-BSO treated fibroblasts was set as 100%, and the viability of the BSO- and compound-treated cells was calculated as relative to this value.

Assay [2] deals with human dermal fibroblasts from CoQ10 deficient patients. The assay can be described thus: Rescue of stressed fibroblasts from CoQ10 deficient patients (Example E). The note with it: Fibroblast, fibroblasts harboring a CoQ2 mutation, screen similar to Example A, read-out: protection against CoQ10 deficiency, EC50. As to the method: Compounds of the invention were tested using a screen similar to the one described in Example A, but substituting FRDA cells with cells obtained from CoQ10 deficient patients harboring a CoQ2 mutation.

For assay [3], the system named is human dermal fibroblasts from Huntington's patients. The assay can be described thus: Rescue of BSO-stressed fibroblasts from Huntington's patients (Example B). The note with it: Fibroblast, Huntington's fibroblasts GM 04281, screen as Example A, read-out: protection against Hungtington's, EC50. On the procedure: The compounds were tested for their ability to rescue human dermal fibroblasts from Huntington's patients from oxidative stress.

The subject of assay [4] is human dermal fibroblasts from LHON patients. Description: Rescue of BSO-stressed fibroblasts from LHON patients (Example C). The note with it: Fibroblast, LHON fibroblasts GM03858, screen as Example A, read-out: protection against LHON, EC50. On the procedure:
The compounds were tested for their ability to rescue human dermal fibroblasts from LHON patients from oxidative stress.

`CC1=C(C)C(=O)C(CCC(C)(O)C(=O)N2CCNCC2)=C(C)C1=O` (stereo not shown) [2-(3-hydroxy-3-methyl-4-oxo-4-(piperazin-1-yl)butyl)-3,5,6-trimethylcyclohexa-2,5-diene-1,4-dione]: the pEC50 in assay [1] and in assay [2] was over 7.00 throughout.
Turning to `CC(=O)N1CCN(C(=O)C(C)(O)CCC2=C(C)C(=O)C(C)=C(C)C2=O)CC1` (stereo not shown) [2-(4-(4-acetylpiperazin-1-yl)-3-hydroxy-3-methyl-4-oxobutyl)-3,5,6-trimethylcyclohexa-2,5-diene-1,4-dione], the pEC50 in assay [1], in assay [3], in assay [4] and in assay [2] was over 7.00 each time.
As for `CC1=C(C)C(=O)C(CCC(C)(O)C(=O)NCc2cccnc2)=C(C)C1=O` (stereo not shown) [2-hydroxy-2-methyl-N-(pyridin-3-ylmethyl)-4-(2,4,5-trimethyl-3,6-dioxocyclohexa-1,4-dienyl)butanamide], the pEC50 in assay [4] and in assay [2] was over 7.00 in each case.
With `CC1=C(C)C(=O)C(CC[C@](C)(O)C(N)=O)=C(C)C1=O` [(S)-2-hydroxy-2-methyl-4-(2,4,5-trimethyl-3,6-dioxocyclohexa-1,4-dienyl)butanamide], the pEC50 in assay [1], in assay [3], in assay [4] and in assay [2] was over 7.00 throughout.
As for `CC1=C(C)C(=O)C(CCC(C)(O)C(=O)NCCCO)=C(C)C1=O` (stereo not shown) [Example 9, 2-Hydroxy-N-(3-hydroxypropyl)-2-methyl-4-(2,4,5-trimethyl-3,6-dioxocyclohexa-1,4-dienyl)butanamide], the negative logarithm of the EC50 (pEC50) in assay [1], in assay [3] and in assay [4] was over 7.00 throughout.
In the case of `CC1=C(C)C(=O)C(CCC(C)(O)C(N)=O)=C(C)C1=O` (stereo not shown) [Example 16, 2-Hydroxy-2-methyl-4-(2,4,5-trimethyl-3,6-dioxocyclohexa-1,4-dienyl)butanamide], the pEC50 in assay [1], in assay [3], in assay [4] and in assay [2] was over 7.00 each time.
Consider `CC1=C(C)C(=O)C(CCC(C)(O)C(=O)NCCCCO)=C(C)C1=O` (stereo not shown) [Example 17, 2-Hydroxy-N-(4-hydroxybutyl)-2-methyl-4-(2,4,5-trimethyl-3,6-dioxocyclohexa-1,4-dienyl)butanamide], for which the pEC50 in assay [1], in assay [3] and in assay [4] was over 7.00 each time.
Consider `CC1=C(C)C(=O)C(CCC(C)(O)C(=O)NC(C)CO)=C(C)C1=O` (stereo not shown) [Example 19, 2-Hydroxy-N-(1-hydroxypropan-2-yl)-2-methyl-4-(2,4,5-trimethyl-3,6-dioxocyclohexa-1,4-dienyl)butanamide], for which the pEC50 in assay [1], in assay [3] and in assay [4] was over 7.00 in each case.
With `CCCCCCNC(=O)C(C)(O)CCC1=C(C)C(=O)C(C)=C(C)C1=O` (stereo not shown) [Example 43, N-hexyl-2-hydroxy-2-methyl-4-(2,4,5-trimethyl-3,6-dioxocyclohexa-1,4-dienyl)butanamide], the pEC50 in assay [4] and in assay [2] was over 7.00 in each case.
Regarding `CC1=C(C)C(=O)C(CCC(C)(O)C(=O)NCc2ccccc2Cl)=C(C)C1=O` (stereo not shown) [N-(2-chlorobenzyl)-2-hydroxy-2-methyl-4-(2,4,5-trimethyl-3,6-dioxocyclohexa-1,4-dienyl)butanamide], the pEC50 in assay [1], in assay [3] and in assay [4] was over 7.00 each time.
With `CC1=C(C)C(=O)C(CCC(C)(O)C(=O)NCCc2ccccc2Cl)=C(C)C1=O` (stereo not shown) [N-(2-chlorophenethyl)-2-hydroxy-2-methyl-4-(2,4,5-trimethyl-3,6-dioxocyclohexa-1,4-dienyl)butanamide], the pEC50 in assay [1] and in assay [2] was over 7.00 throughout.
Consider `CC1=C(C)C(=O)C(CCC(C)(O)C(=O)NCc2ccccc2F)=C(C)C1=O` (stereo not shown) [N-(2-fluorobenzyl)-2-hydroxy-2-methyl-4-(2,4,5-trimethyl-3,6-dioxocyclohexa-1,4-dienyl)butanamide], for which the pEC50 in assay [1], in assay [3] and in assay [4] was over 7.00 each time.
As for `CC1=C(C)C(=O)C(CCC(C)(O)C(=O)NCc2cccc(Cl)c2)=C(C)C1=O` (stereo not shown) [N-(3-chlorobenzyl)-2-hydroxy-2-methyl-4-(2,4,5-trimethyl-3,6-dioxocyclohexa-1,4-dienyl)butanamide], the pEC50 in assay [1], in assay [3] and in assay [4] was over 7.00 each time.
Regarding `CC1=C(C)C(=O)C(CCC(C)(O)C(=O)NCCc2cccc(Cl)c2)=C(C)C1=O` (stereo not shown) [N-(3-chlorophenethyl)-2-hydroxy-2-methyl-4-(2,4,5-trimethyl-3,6-dioxocyclohexa-1,4-dienyl)butanamide], the pEC50 in assay [1], in assay [3] and in assay [4] was over 7.00 in each case.
As to `CC1=C(C)C(=O)C(CCC(C)(O)C(=O)NCc2cccc(F)c2)=C(C)C1=O` (stereo not shown) [N-(3-fluorobenzyl)-2-hydroxy-2-methyl-4-(2,4,5-trimethyl-3,6-dioxocyclohexa-1,4-dienyl)butanamide], the pEC50 in assay [1], in assay [3] and in assay [4] was over 7.00 in each case.
Consider `CC1=C(C)C(=O)C(CCC(C)(O)C(=O)NCc2ccc(Cl)cc2)=C(C)C1=O` (stereo not shown) [N-(4-chlorobenzyl)-2-hydroxy-2-methyl-4-(2,4,5-trimethyl-3,6-dioxocyclohexa-1,4-dienyl)butanamide], for which the pEC50 in assay [1], in assay [3] and in assay [4] was over 7.00 in each case.
On to `CC1=C(C)C(=O)C(CCC(C)(O)C(=O)NCCc2ccc(Cl)cc2)=C(C)C1=O` (stereo not shown) [N-(4-chlorophenethyl)-2-hydroxy-2-methyl-4-(2,4,5-trimethyl-3,6-dioxocyclohexa-1,4-dienyl)butanamide], for which the pEC50 in assay [1], in assay [3], in assay [4] and in assay [2] was over 7.00 in each case.
Turning to `CC1=C(C)C(=O)C(CCC(C)(O)C(=O)Nc2ccc(Cl)cc2)=C(C)C1=O` (stereo not shown) [N-(4-chlorophenyl)-2-hydroxy-2-methyl-4-(2,4,5-trimethyl-3,6-dioxocyclohexa-1,4-dienyl)butanamide], the pEC50 in assay [1], in assay [3] and in assay [4] was over 7.00 throughout.
As to `CC1=C(C)C(=O)C(CCC(C)(O)C(=O)NCc2ccc(F)cc2)=C(C)C1=O` (stereo not shown) [N-(4-fluorobenzyl)-2-hydroxy-2-methyl-4-(2,4,5-trimethyl-3,6-dioxocyclohexa-1,4-dienyl)butanamide], the pEC50 in assay [1], in assay [3] and in assay [4] was over 7.00 throughout.
For the compound `CC1=C(C)C(=O)C(CCC(C)(O)C(=O)NCCc2ccc(F)cc2)=C(C)C1=O` (stereo not shown) [N-(4-fluorophenethyl)-2-hydroxy-2-methyl-4-(2,4,5-trimethyl-3,6-dioxocyclohexa-1,4-dienyl)butanamide], the pEC50 in assay [1], in assay [3] and in assay [4] was over 7.00 throughout.
As for `CC1=C(C)C(=O)C(CCC(C)(O)C(=O)N2CCN(C(=O)OC(C)(C)C)CC2)=C(C)C1=O` (stereo not shown) [tert-butyl 4-(2-hydroxy-2-methyl-4-(2,4,5-trimethyl-3,6-dioxocyclohexa-1,4-dienyl)butanoyl)piperazine-1-carboxylate], in assay [2], the pEC50 is over 7.00.

By pEC50 is commonly meant −log10 of the EC50, conventionally taken in molar units.
